Our source for the relative viability values is the supplement of paper PMC10307832.

Experiment in all cases: relative viability (nuclei count vs DMSO), 5 days (fraction); higher = more cells survive
Compound in test [1]: CCn1c(-c2nonc2N)nc2c(C#CC(C)(C)O)ncc(OC[C@H]3CCCNC3)c21 + CCNC(=O)c1noc(-c2cc(C(C)C)c(O)cc2O)c1-c1ccc(CN2CCOCC2)cc1 [Luminespib] (partner 0.01 µM)
In outline: (§1)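 One day after seeding in 1536-well plates, lung cancer cell lines were dosed by pin tool. Dosing was either single-drug or a fixed anchor-drug dose plus five library-drug doses (not always all listed) in √10 steps. After 5 days, nuclei were stained in one fix-and-stain step and counted on 4× images, and relative viability is the nuclei count of treated wells over that of vehicle wells, given as the median of duplicate plates.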

Compound in test [2]: CCn1c(-c2nonc2N)nc2c(C#CC(C)(C)O)ncc(OC[C@H]3CCCNC3)c21 + CC1(C)CCC(c2ccc(Cl)cc2)=C(CN2CCN(c3ccc(C(=O)NS(=O)(=O)c4ccc(N[C@H](CCN5CCOCC5)CSc5ccccc5)c(S(=O)(=O)C(F)(F)F)c4)cc3)CC2)C1 [Navitoclax] (partner 0.5 µM)
In short, it runs like this:
as §1

Compound in test [3]: CCn1c(-c2nonc2N)nc2c(C#CC(C)(C)O)ncc(OC[C@H]3CCCNC3)c21 + Cc1nc(Nc2ncc(C(=O)Nc3c(C)cccc3Cl)s2)cc(N2CCN(CCO)CC2)n1 [Dasatinib] (partner 0.075 µM)
In short, it runs like this: as §1

Compound in test [4]: CCn1c(-c2nonc2N)nc2c(C#CC(C)(C)O)ncc(OC[C@H]3CCCNC3)c21 + NC(=O)Nc1cc(-c2cccc(F)c2)sc1C(=O)N[C@H]1CCCNC1 [AZD7762] (partner 0.2 µM)
In short, it runs like this:
as §1

For the cell line NCI-H2405, the relative viability in test [1] (first compound 0.01 µM) came out at 0.542; in test [1] (first compound 0.03162 µM), 0.793; in test [1] (first compound 0.1 µM) it was 0.663; in test [1] (first compound 0.3162 µM), 0.647; in test [1] (first compound 1 µM) it was 0.698; in test [2] (first compound 0.01 µM), 0.892. The relative viability in test [2] (first compound 0.03162 µM) came out at 0.873; in test [2] (first compound 0.3162 µM), 0.883; in test [2] (first compound 1 µM) it was 1; in test [3] (first compound 0.01 µM), 0.199; in test [3] (first compound 0.03162 µM), 0.216; in test [3] (first compound 0.1 µM) it was 0.216. The relative viability in test [3] (first compound 0.3162 µM) is 0.214; in test [3] (first compound 1 µM), 0.213; in test [4] (first compound 0.01 µM), 0.773; in test [4] (first compound 0.03162 µM), 0.77; in test [4] (first compound 0.1 µM), 0.792; in test [4] (first compound 0.3162 µM), 0.731. The relative viability in test [4] (first compound 1 µM) was 0.721.

Regarding NCI-H3122, the relative viability turned out to be 0.0785 in test [1] (first compound 0.01 µM); 0.0949 in test [1] (first compound 0.03162 µM); 0.101 in test [1] (first compound 0.1 µM); 0.072 in test [1] (first compound 0.3162 µM); 0.0984 in test [1] (first compound 1 µM); 1.05 in test [2] (first compound 0.01 µM). In addition, the relative viability in test [2] (first compound 0.03162 µM) came out at 1; in test [2] (first compound 0.1 µM), 1.06; in test [2] (first compound 0.3162 µM) it was 1.01; in test [2] (first compound 1 µM), 1.04; in test [3] (first compound 0.01 µM), 0.68; in test [3] (first compound 0.03162 µM) it was 0.859. Also, the relative viability in test [3] (first compound 0.1 µM) was 0.857; in test [3] (first compound 0.3162 µM) it was 0.852; in test [3] (first compound 1 µM) it was 0.637; in test [4] (first compound 0.01 µM) it was 1.01; in test [4] (first compound 0.03162 µM) it was 1.03; in test [4] (first compound 0.1 µM), 0.997. In addition, the relative viability turned out to be 0.975 in test [4] (first compound 0.3162 µM) and 1.04 in test [4] (first compound 1 µM).

On to PC-3 [JPC-3], for which the relative viability came to 0.734 in test [1] (first compound 0.01 µM); 0.726 in test [1] (first compound 0.03162 µM); 0.709 in test [1] (first compound 0.1 µM); 0.67 in test [1] (first compound 0.3162 µM); 0.591 in test [1] (first compound 1 µM); 0.806 in test [2] (first compound 0.01 µM). Also, the relative viability in test [2] (first compound 0.03162 µM) worked out at 0.788; in test [2] (first compound 0.1 µM), 0.859; in test [2] (first compound 0.3162 µM) it was 0.837; in test [2] (first compound 1 µM), 0.809; in test [3] (first compound 0.01 µM), 0.932; in test [3] (first compound 0.03162 µM), 0.967. Further, the relative viability in test [3] (first compound 0.1 µM) was determined as 1.02; in test [3] (first compound 0.3162 µM) it was 0.986; in test [3] (first compound 1 µM), 0.902; in test [4] (first compound 0.01 µM) it was 0.724; in test [4] (first compound 0.1 µM), 0.796; in test [4] (first compound 0.3162 µM) it was 0.692. The relative viability in test [4] (first compound 1 µM) is 0.859.

With PC-14, the relative viability came out at 0.173 in test [1] (first compound 0.01 µM); 0.112 in test [1] (first compound 0.03162 µM); 0.158 in test [1] (first compound 0.1 µM); 0.107 in test [1] (first compound 0.3162 µM); 0.148 in test [1] (first compound 1 µM); 1.04 in test [2] (first compound 0.01 µM). The relative viability was 1.02 in test [2] (first compound 0.03162 µM); 0.976 in test [2] (first compound 0.1 µM); 0.875 in test [2] (first compound 0.3162 µM); 1.08 in test [2] (first compound 1 µM); 0.243 in test [3] (first compound 0.01 µM); 0.292 in test [3] (first compound 0.03162 µM). Besides, the relative viability in test [3] (first compound 0.1 µM) worked out at 0.28; in test [3] (first compound 0.3162 µM), 0.237; in test [3] (first compound 1 µM) it was 0.301; in test [4] (first compound 0.01 µM), 0.31; in test [4] (first compound 0.03162 µM), 0.285; in test [4] (first compound 0.1 µM), 0.356. The values for the relative viability in test [4] (first compound 0.3162 µM) and in test [4] (first compound 1 µM) were 0.31 and 0.342, respectively.

RERF-LC-KJ: the relative viability in test [1] (first compound 0.01 µM) amounted to 1.12; in test [1] (first compound 0.03162 µM), 1.31; in test [1] (first compound 0.1 µM), 1.27; in test [1] (first compound 0.3162 µM), 1.19; in test [1] (first compound 1 µM), 1.1; in test [2] (first compound 0.01 µM), 0.944. Besides, the relative viability in test [2] (first compound 0.03162 µM) is 1.04; in test [2] (first compound 0.1 µM), 0.773; in test [2] (first compound 0.3162 µM), 1.17; in test [2] (first compound 1 µM), 0.791; in test [3] (first compound 0.01 µM), 0.708; in test [3] (first compound 0.03162 µM), 0.815. The relative viability turned out to be 0.748 in test [3] (first compound 0.1 µM); 0.678 in test [3] (first compound 0.3162 µM); 0.565 in test [3] (first compound 1 µM); 1 in test [4] (first compound 0.01 µM); 1.07 in test [4] (first compound 0.03162 µM); 0.949 in test [4] (first compound 0.1 µM). The relative viability was 0.867 in test [4] (first compound 0.3162 µM) and 1.05 in test [4] (first compound 1 µM).
